Data on seven compounds can be found in article PMC11854949, “Discovery of Novel Pyridin-2-yl Urea Inhibitors Targeting ASK1 Kinase and Its Binding Mode by Absolute Protein–Ligand Binding Free Energy Calculations” (International Journal of Molecular Sciences, 2025).

This test has as its target T1, recombinant human ASK1 protein (catalytic domain, residues 659–951) (Homo sapiens, UniProt Q99683).
T1 construct: The catalytic domain of ASK1 (encoding residues 659–951) was modified to include an N-terminal 6XHis tag; 6XHis (N); made in house; host or cells: E. coli Rosetta2 (DE3)
Description: ASK1 enzyme inhibition assay (ADP-Glo). It is filed as biochemical. The note with it: for ΔGexp: estimated from IC50 using ΔG = RTln(IC50), 298 K; for IC50: mean ± SEM, n = 3 experiments, 25 μM ATP, 0.1 μg/μL MBP, ADP-Glo. As for the experimental part:
The recombinant human ASK1 protein was expressed in E. coli Rosetta2 (DE3) in LB medium, containing 100 µg/mL ampicillin and 34 µg/mL chloramphenicol. A total of 2 mL overnight culture was diluted 100-fold into 200 mL LB and grown at 37 °C with shaking at 200 rpm until the OD600 reached 0.8. Subsequently, 0.5 mM IPTG was added, and protein expression was induced overnight at 20 °C.
The IC50 value for each inhibitor was determined using the ADP-Glo™ protocol. Inhibitors were prepared as a series of 1:1 serial dilutions (final concentration of 10 μM) in 40 mM HEPES buffer (pH 7.5) containing 20 mM MgCl2, 0.1 mg/mL BSA, 50 μM DTT and 5% DMSO.
The reaction was terminated by adding 5 μL of ADP-Glo reagent and incubated at room temperature for 40 min. Then, 10 μL of kinase detection reagent was added, and the mixture was incubated for an additional 30 min. Luminescence was measured using a VICTOR Nivo microplate reader (PerkinElmer, Waltham, MA, USA), and the concentration–response curve and half-maximal inhibitory concentration (IC50) values were obtained by fitting the data using GraphPad Prism (v.9.0) software.

T1 sequence (Q99683 659-951): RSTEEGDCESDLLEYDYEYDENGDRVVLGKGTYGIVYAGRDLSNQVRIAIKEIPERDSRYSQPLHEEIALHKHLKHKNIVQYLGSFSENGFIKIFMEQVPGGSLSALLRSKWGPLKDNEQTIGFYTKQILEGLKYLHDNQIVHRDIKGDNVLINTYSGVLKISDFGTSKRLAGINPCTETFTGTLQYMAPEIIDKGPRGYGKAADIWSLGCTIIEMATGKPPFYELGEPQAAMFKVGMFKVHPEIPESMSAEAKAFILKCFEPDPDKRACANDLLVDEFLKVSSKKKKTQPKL

Regarding `CC(C)n1cnnc1-c1cccc(NC(=O)N2CCCC2)n1` [Compound 1], the ΔGexp is -7.41 ± 0.01 kcal/mol and the half-maximal inhibitory concentration (IC50) came out at 3630 ± 72.2 nM.
`CC(C)n1cnnc1-c1cccc(NC(=O)N2CCc3ccc(OC(F)(F)F)cc32)n1` [Compound 3]: the ΔGexp is -8.21 ± 0.01 kcal/mol and the IC50 amounted to 954 ± 21.5 nM.
For `CC(C)n1cnnc1-c1cccc(NC(=O)N2CCc3cc(C(F)(F)F)ccc32)n1` [Compound 5], the ΔGexp is -8.85 ± 0.02 kcal/mol and the half-inhibitory concentration (IC50) amounted to 319 ± 10.9 nM.
For `CC(C)n1cnnc1-c1cccc(NC(=O)N2CCc3ccccc3C2)n1` [Compound 7], the ΔGexp is -7.21 ± 0.06 kcal/mol and the IC50 was 5110 ± 507 nM.
In the case of `COc1ccc2c(c1)CCN2C(=O)Nc1cccc(-c2nncn2C(C)C)n1` [Compound 4], the ΔGexp is -10.01 ± 0.07 kcal/mol and the IC50 was 45.3 ± 4.82 nM.
For `CC(C)n1cnnc1-c1cccc(NC(=O)N2CCCc3ccccc32)n1` [Compound 6], the ΔGexp was -11.64 ± 0.06 kcal/mol and the half-inhibitory concentration (IC50) was determined as 2.92 ± 0.28 nM.
`COc1ccc2c(c1)N(C(=O)Nc1cccc(-c3nncn3C(C)C)n1)CC2` [Compound 2]: the ΔGexp was -12.02 ± 0.11 kcal/mol and the IC50 stood at 1.55 ± 0.27 nM.

What is called IC50 is the concentration at which inhibition is half-maximal.
